In patent US7157222B2, “Method of cryopreservation of tissues by vitrification” (Organ Recovery Systems, Inc., priority 1999, dated 2007):

Columns and labels:
[1] = tested on: rabbit jugular vein ring segments; test: Maximal contractile response of vein rings in vascular smooth muscle bath; type: cell-based; details: for Maximal Physiological Responses, Control: fresh vein rings (n = 15); for Maximal Physiological Responses, Control / Maximal Physiological Responses, Vitrified: Mean ± SEM; for Maximal Physiological Responses, % of corresponding fresh controls: vein rings vitrified with VS55 versus fresh vein rings; for Maximal Physiological Responses, Vitrified: vein rings vitrified with vitrification solution VS55 (n = 26)
Experimental: Vein rings, which are about 4 mm long segments of rabbit external jugular veins, are vitrified in VS55 by the method described above for longer external jugular vein segments, except that perfusion is not used. […] The baseline tension of all vein rings is adjusted to 0.25 to 0.75 g. Changes in tension are recorded by force transducers. After 1 hour of equilibration, the vein rings are pretested with potassium chloride for contraction. After rinsing with KH solution, the vein rings are equilibrated for another 30 minutes prior to the start of experiment. During a relaxation experiment, contraction of the vein rings is produced by 10^−6M norepinephrine and, after the contractile response plateaus, cumulative concentrations of acetylcholine (10^−10M to 10^−4M) are added to the bathing medium to induce the endothelium dependent relaxation response. In the current study, histamine, bradykinin, angiotensin II, and norepinephrine are tested in rabbit jugular vein ring segments vitrified with VS55 and fresh vein rings. Both histamine and bradykinin produce contraction in the vein via their local receptors. Norepinephrine acts directly on the adrenoceptor, while angiotensin II binds to AT receptors and acts through local renin-angiotensin systems.

artery ring segments = test: Maximal contractile response of artery rings; type: cell-based; details: for Maximal Physiological Responses, Vitrified: artery rings vitrified with VS55 (norepinephrine n = 37, phenylephrine n = 23); for Maximal Physiological Responses, Vitrified / Maximal Physiological Responses, Control: Mean ± SEM; for Maximal Physiological Responses, % of corresponding fresh controls: artery rings vitrified with VS55 versus fresh controls; for Maximal Physiological Responses, Control: fresh rings (norepinephrine n = 16, phenylephrine n = 12)
Experimental: Vein rings, which are about 4 mm long segments of rabbit external jugular veins, are vitrified in VS55 by the method described above for longer external jugular vein segments, except that perfusion is not used. After being rewarmed, the vein rings are mounted between two stainless steel wire hooks and suspended in a vascular smooth muscle bath containing 5 ml of Krebs Henseleit (KH) solution, which is gassed continuously with 95% O2 and 5% CO2 at 37° C. The baseline tension of all vein rings is adjusted to 0.25 to 0.75 g. Changes in tension are recorded by force transducers. After 1 hour of equilibration, the vein rings are pretested with potassium chloride for contraction. After rinsing with KH solution, the vein rings are equilibrated for another 30 minutes prior to the start of experiment. During a relaxation experiment, contraction of the vein rings is produced by 10^−6M norepinephrine and, after the contractile response plateaus, cumulative concentrations of acetylcholine (10^−10M to 10^−4M) are added to the bathing medium to induce the endothelium dependent relaxation response.
Artery rings are vitrified in VS55 by the method described above for vein rings. After being rewarmed, norepinephrine and phenylephrine are tested in artery ring segments vitrified with VS55 and fresh artery rings.

| Compound | Maximal Physiological Responses, Control [1] | Maximal Physiological Responses, % of corresponding fresh controls [1] | Maximal Physiological Responses, Vitrified [1] | Maximal Physiological Responses, Vitrified (artery ring segments) | Maximal Physiological Responses, % of corresponding fresh controls (artery ring segments) | Maximal Physiological Responses, Control (artery ring segments) |
| --- | --- | --- | --- | --- | --- | --- |
| NCCc1c[nH]cn1 [Histamine, histamine] | 1.78 ± 0.19 g | 87.1% | 1.55 ± 0.27 g | – | – | – |
| NC[C@H](O)c1ccc(O)c(O)c1 [Norepinephrine, norepinephrine] | 0.99 ± 0.12 g | 83.8% | 0.83 ± 0.14 g | 2.58 ± 0.23 g | 90.8% | 2.84 ± 0.38 g |
| CNC[C@H](O)c1cccc(O)c1 [Phenylephrine, phenylephrine] | – | – | – | 2.23 ± 0.29 g | 88.3% | 2.53 ± 0.45 g |
| angiotensin II (DRVYIHPF; Angiotensin-2; UniProt P01019 25-32, looked up) | 0.58 ± 0.06 g | 84.5% | 0.49 ± 0.09 g | – | – | – |
